{"source": "patent US7589137B2", "about": "“Resin composition and molded product obtained therefrom” (Sony Corporation, priority 2005, dated 2009)", "origin": "cited, not measured here", "conditions": "safety to a living body", "data": [{"smiles": "Cc1cc(O)nc(O)n1", "note": "[6-methyluracil]", "values": [{"measurement": "LD50", "result": 64500, "unit": "mg/kg"}]}, {"smiles": "O=c1cc[nH]c(=O)[nH]1", "note": "[Uracil, uracil]", "values": [{"measurement": "LD50", "result": "several"}]}]}
